Test results reported in US20070208087A1, “Compounds, compositions and methods for the treatment of inflammatory diseases” (priority 2001, published 2007).
Where “and” joins values, the source holds several entries; their conditions need not be identical. Equal entries are not always repeated. Where two headings read alike, the source gives them in different places.

Legend:
Microglial cells = assay: Dose response inhibition of NO release from microglia, 0.75-200 μM (Example 8); format: cell-based; settings: for inhibition at 0.75 µM / inhibition at 1.56 µM / inhibition at 3.125 µM / inhibition at 6.25 µM / inhibition at 12.5 µM / inhibition at 25 µM / inhibition at 50 µM / inhibition at 100 µM / inhibition at 200 µM: Microglia, 48 h
Method: This experiment was designed to determine dose response inhibition of NO release from microglia by bis- and tris-dihydroxyaryl compounds when stimulated with LPS/IFNγ. […] This experiment is designed to determine a dose response for various bis- and tris-dihydroxyaryl compounds. Microglial cells were plated into 96 well plates at 1×10^5 cells/ml. […] The doses tested were: 0.75 μM, 1.56 μM, 3.125 μM, 6.25 μM, 12.5 μM, 25 μM, 50 μM, 100 μM and 200 μM. Nitric oxide release was measured after 48 hours using the Griess reaction.

[1] = test system: EOC 13.31 microglial cells; assay: NO release inhibition screen in LPS/IFNγ stimulated microglia, Griess reaction at 48 hours (Example 7); format: cell-based; settings: for inhibition at 50 µM: Microglia, 48 h
Outline: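 EOC 13.31 microglia, confluent at 24 h, stimulated with 10 μg/ml LPS plus 10 ng/ml IFNγ in presence of 50 uM test compound. Nitric oxide release quantified by Griess reaction at 48 hours.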

[2] = dose 6.25 μM, 48 hours, read-out: Avg % Inhibition
[3] = dose 12.5 μM, 48 hours, read-out: Avg % Inhibition
[4] = dose 25 μM, 48 hours, read-out: Avg % Inhibition
[5] = dose 50 μM, 48 hours, read-out: Avg % Inhibition
[6] = dose 50 μM, 48 hours, single replicates, read-out: % inhibition
[7] = dose 100 μM, 48 hours, read-out: Avg % Inhibition
[8] = dose 200 μM, 48 hours, read-out: Avg % Inhibition
[9] = dose 200 μM, 48 hours, single replicates, read-out: % inhibition
[10] = dose 0.75 μM, 48 hours, single replicates
[11] = dose 1.56 μM, 48 hours, single replicates
[12] = dose 3.125 μM, 48 hours, single replicates
[13] = dose 6.25 μM, 48 hours, single replicates
[14] = dose 12.5 μM, 48 hours, single replicates
[15] = dose 25 μM, 48 hours, single replicates
[16] = dose 50 μM, 48 hours, single replicates
[17] = dose 100 μM, 48 hours, single replicates
[18] = dose 200 μM, 48 hours, single replicates

O=C(N[C@@H]1CCCC[C@H]1NC(=O)c1ccc(O)c(O)c1)c1ccc(O)c(O)c1 (relative stereo) [Compound 26, N,N′-bis(3,4-dihydroxybenzoyl)-trans-1,2-diaminocyclohexane]
inhibition at 0.75 µM (Microglial cells; dose 0.75 μM): -1.78%
inhibition at 1.56 µM (Microglial cells; dose 1.56 μM): 6%
inhibition at 3.125 µM (Microglial cells; dose 3.125 μM): 5.78%
inhibition at 6.25 µM (Microglial cells; [2]): 0.428%
inhibition at 12.5 µM (Microglial cells; [3]): 10.1%
inhibition at 12.5 µM (Microglial cells; dose 12.5 μM, 48 hours, single replicates, read-out: % inhibition): 10.1%
inhibition at 25 µM (Microglial cells; [4]): 10.1%
inhibition at 25 µM (Microglial cells; dose 25 μM, 48 hours, single replicates, read-out: % inhibition): 13.3%
inhibition at 50 µM (Microglial cells; [5]): 19.7%
inhibition at 50 µM (Microglial cells; [6]): 19.7%
inhibition at 100 µM (Microglial cells; [7]): 23.6%
inhibition at 200 µM (Microglial cells; [8]): 44.5%
inhibition at 200 µM (Microglial cells; [9]): 46%
μM NO release Avg (Microglial cells; dose 0.75 μM, 48 hours): 24.756 µM
% inhibition (Microglial cells; [10]): 1.07% and −4.91% and −1.50%
OD values (printed under head μM NO release) (Microglial cells; [10]): 0.21 and 0.206 and 0.215
μM NO release (Microglial cells; [10]): 24.688 µM and 24.063 µM and 25.517 µM
μM NO release Avg (Microglial cells; dose 1.56 μM, 48 hours): 22.865 µM
% inhibition (Microglial cells; [11]): 9.42% and 2.36% and 6.21%
OD values (printed under head μM NO release) (Microglial cells; [11]): 0.198 and 0.193 and 0.204
μM NO release (Microglial cells; [11]): 22.813 µM and 22.031 µM and 23.750 µM
μM NO release Avg (Microglial cells; dose 3.125 μM, 48 hours): 22.917 µM
% inhibition (Microglial cells; [12]): 8.14% and 2.36%
OD values (printed under head μM NO release) (Microglial cells; [12]): 0.197 and 0.195 and 0.204
μM NO release (Microglial cells; [12]): 22.656 µM and 22.344 µM and 23.750 µM
μM NO release Avg (Microglial cells; dose 6.25 μM, 48 hours): 24.219 µM
% inhibition (Microglial cells; [13]): 3.64% and −2.14% and −0.21%
OD values (printed under head μM NO release) (Microglial cells; [13]): 0.208 and 0.202 and 0.211
μM NO release (Microglial cells; [13]): 24.375 µM and 23.438 µM and 24.844 µM
μM NO release Avg (Microglial cells; dose 12.5 μM, 48 hours): 21.875 µM
OD values (printed under head μM NO release) (Microglial cells; [14]): 0.192
μM NO release (Microglial cells; [14]): 21.875 µM
μM NO release Avg (Microglial cells; dose 25 μM, 48 hours): 21.875 µM
OD values (printed under head μM NO release) (Microglial cells; [15]): 0.197 and 0.187 and 0.192
μM NO release (Microglial cells; [15]): 22.656 µM and 21.094 µM and 21.875 µM
μM NO release Avg (Microglial cells; dose 50 μM, 48 hours): 19.531 µM
% inhibition (Microglial cells; [16]): 18.42% and 20.99%
OD values (printed under head μM NO release) (Microglial cells; [16]): 0.175 and 0.177 and 0.179
μM NO release (Microglial cells; [16]): 19.219 µM and 19.531 µM and 19.844 µM
μM NO release Avg (Microglial cells; dose 100 μM, 48 hours): 18.594 µM
% inhibition (Microglial cells; [17]): 17.13% and 19.06% and 34.48%
OD values (printed under head μM NO release) (Microglial cells; [17]): 0.154 and 0.181 and 0.178
μM NO release (Microglial cells; [17]): 15.938 µM and 20.156 µM and 19.688 µM
μM NO release Avg (Microglial cells; dose 200 μM, 48 hours): 13.490 µM
% inhibition (Microglial cells; [18]): 40.26% and 47.32%
OD values (printed under head μM NO release) (Microglial cells; [18]): 0.134 and 0.136 and 0.145
μM NO release (Microglial cells; [18]): 12.813 µM and 13.125 µM and 14.531 µM

O=C(NCc1ccc(O)c(O)c1)C(=Cc1ccc(O)c(O)c1)NC(=O)c1ccc(O)c(O)c1 [Compound 21, α-(3,4-dihydroxybenzamido)-3,4-dihydroxycinnamic acid 3,4-dihydroxybenzyl amide]
inhibition at 0.75 µM (Microglial cells; dose 0.75 μM): -15.5%
inhibition at 1.56 µM (Microglial cells; dose 1.56 μM): -6.58%
inhibition at 3.125 µM (Microglial cells; dose 3.125 μM): -6.05%
inhibition at 6.25 µM (Microglial cells; [2]): -1.84%
inhibition at 12.5 µM (Microglial cells; [3]): 5%
inhibition at 25 µM (Microglial cells; [4]): 2.9%
inhibition at 50 µM (Microglial cells; [5]): 13.7%
inhibition at 50 µM (Microglial cells; [6]): 16.3%
inhibition at 100 µM (Microglial cells; [7]): 33.7%
inhibition at 100 µM (Microglial cells; dose 100 μM, 48 hours, single replicates, read-out: % inhibition): 33.7%
inhibition at 200 µM (Microglial cells; [8]): 69%
inhibition at 200 µM (Microglial cells; [9]): 67.6%
μM NO release Avg (Microglial cells; dose 0.75 μM, 48 hours): 22.865 µM
% inhibition (Microglial cells; [10]): −16.05% and −17.63% and −12.89%
OD values (printed under head μM NO release) (Microglial cells; [10]): 0.195 and 0.199 and 0.201
μM NO release (Microglial cells; [10]): 22.344 µM and 22.969 µM and 23.281 µM
μM NO release Avg (Microglial cells; dose 1.56 μM, 48 hours): 21.094 µM
% inhibition (Microglial cells; [11]): −8.16% and −9.74% and −1.84%
OD values (printed under head μM NO release) (Microglial cells; [11]): 0.181 and 0.189 and 0.191
μM NO release (Microglial cells; [11]): 20.156 µM and 21.406 µM and 21.719 µM
μM NO release Avg (Microglial cells; dose 3.125 μM, 48 hours): 20.990 µM
% inhibition (Microglial cells; [12]): −4.21% and −8.16% and −5.79%
OD values (printed under head μM NO release) (Microglial cells; [12]): 0.186 and 0.184 and 0.189
μM NO release (Microglial cells; [12]): 20.938 µM and 20.625 µM and 21.406 µM
μM NO release Avg (Microglial cells; dose 6.25 μM, 48 hours): 20.156 µM
% inhibition (Microglial cells; [13]): 2.89% and −3.42%
OD values (printed under head μM NO release) (Microglial cells; [13]): 0.183 and 0.175 and 0.185
μM NO release (Microglial cells; [13]): 20.469 µM and 19.219 µM and 20.781 µM
μM NO release Avg (Microglial cells; dose 12.5 μM, 48 hours): 18.802 µM
% inhibition (Microglial cells; [14]): 5.26% and −4.21% and 13.95%
OD values (printed under head μM NO release) (Microglial cells; [14]): 0.161 and 0.172 and 0.184
μM NO release (Microglial cells; [14]): 17.031 µM and 18.750 µM and 20.625 µM
μM NO release Avg (Microglial cells; dose 25 μM, 48 hours): 19.219 µM
% inhibition (Microglial cells; [15]): 7.63% and 1.32% and −0.26%
OD values (printed under head μM NO release) (Microglial cells; [15]): 0.179 and 0.169 and 0.177
μM NO release (Microglial cells; [15]): 19.844 µM and 18.281 µM and 19.531 µM
μM NO release Avg (Microglial cells; dose 50 μM, 48 hours): 17.083 µM
% inhibition (Microglial cells; [16]): 10.79% and 13.95%
OD values (printed under head μM NO release) (Microglial cells; [16]): 0.161 and 0.158 and 0.165
μM NO release (Microglial cells; [16]): 17.031 µM and 16.563 µM and 17.656 µM
μM NO release Avg (Microglial cells; dose 100 μM, 48 hours): 13.125 µM
OD values (printed under head μM NO release) (Microglial cells; [17]): 0.136
μM NO release (Microglial cells; [17]): 13.125 µM
Avg % Inhibition (Microglial cells; dose 200 μM, 48 hours): 69.211%
μM NO release Avg (Microglial cells; dose 200 μM, 48 hours): 6.094 µM
% inhibition (Microglial cells; [18]): 68.42% and 71.58%
OD values (printed under head μM NO release) (Microglial cells; [18]): 0.087 and 0.093 and 0.092
μM NO release (Microglial cells; [18]): 5.625 µM and 6.41 µM
inhibition of NO release, in words (Microglial cells; dose response 0.75-200 μM): effective inhibitors of NO release

Oc1ccc(CNCc2ccc(O)c(O)c2)cc1O [Compound 73, bis(3,4-dihydroxybenzyl)amine]
μM NO release Avg ([1]; 50 uM + 10 μg/ml LPS/10 ng/ml IFNγ, 48 hours): 2.301 µM
% inhibition ([1]; 50 uM + 10 μg/ml LPS/10 ng/ml IFNγ, 48 hours, single replicates, 50 µM): 83.62% and 94.98%
inhibition of NO release, in words ([1]; 50 uM, LPS/IFNγ stimulated microglia): effective inhibitors of NO release
inhibition at 50 µM ([1]; 50 uM + 10 μg/ml LPS/10 ng/ml IFNγ, 48 hours, read-out: Avg. % Inhibition): 91.7%
inhibition at 50 µM ([1]; 50 uM + 10 μg/ml LPS/10 ng/ml IFNγ, 48 hours, single replicates, read-out: % inhibition): 96.5%
